Test results from patent US10858339B2, “Aryl cyclopropyl-amino-isoquinolinyl amide compounds” (priority 2017, dated 2020).
Structures can show the parent of a compound that is named as a salt.

Columns and labels:
Rho Kinase = assay: ROCK kinase inhibition assay (Rho Kinase Activity, isoform not given); format: biochemical; conditions: Table 15, mostly given as ranges
Procedure: All compounds were initially prepared as 10 mM stocks in anhydrous dimethylsulfoxide (DMSO). A 20 μl aliquot of the 10 mM solutions was transferred to individual wells in column 1 of a 96-well polypropylene microtiter plate (Corning #3363) and diluted with DMSO to give a final compound concentration of 4 mM. Test compounds were then serially diluted 1:5 in DMSO for an 11-point concentration response and further diluted in the assay buffer bringing all compound concentrations to a final range of 100 μM to […] in 2.5% DMSO. The assay was performed in white 96-well, flat-bottom, half-area, non-binding assay plate (Corning #3642) in assay buffer consisting of 20 mM HEPES (pH 7.5), 10 mM MgCl2*6H2O, 100 μM sodium orthovanadate, 0.05% CHAPS and 0.1% bovine serum albumin. A 10 μL aliquot of compound from each well of the intermediate dilution plate and 20 μL of a 2× substrate/enzyme solution containing acceptor substrate (800 nM RSK2 peptide […] (SEQ ID NO: 1)), ROCK2 enzyme (10 nM), or ROCK1 enzyme, and 1,4-Dithiothreitol (DTT, 2 uM) were added to all wells. The reaction was initiated by the addition of 10 μL of 4× stock solution ATP (2 μM). Reactions were thoroughly mixed manually, covered and allowed to incubate at room temperature for 75 min. Protein kinase activity was quantitated using Promega's KINASE-GLO™ luminescent Kinase Assay Kit according to the manufacturer's directions. ATP concentrations remaining in Test wells following the termination of the enzymatic reaction were compared against control wells containing equivalent amounts of DMSO containing no inhibitor (CTRL). […] Percent of Control (POC) values were determined for each concentration of compound tested according to the equation: POC=((Test well value−BKG)/(CTRL−BKG))*100
IC50 values were converted to K; […]

JAK2 = JAK2 (Homo sapiens, UniProt O60674); assay: JAK kinase assay, JAK2 enzyme; format: biochemical; conditions: Table 15; in brackets in the activity cell; read-out: JAK2 activity;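 note: JAK2 kinase reaction run 75 min at room temperature, leftover ATP read by Kinase-Glo luminescence, 11-point dilution series in 2.5% DMSO, percent of inhibitor-free DMSO control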
Chain of JAK2 (O60674 whole entry, species assumed): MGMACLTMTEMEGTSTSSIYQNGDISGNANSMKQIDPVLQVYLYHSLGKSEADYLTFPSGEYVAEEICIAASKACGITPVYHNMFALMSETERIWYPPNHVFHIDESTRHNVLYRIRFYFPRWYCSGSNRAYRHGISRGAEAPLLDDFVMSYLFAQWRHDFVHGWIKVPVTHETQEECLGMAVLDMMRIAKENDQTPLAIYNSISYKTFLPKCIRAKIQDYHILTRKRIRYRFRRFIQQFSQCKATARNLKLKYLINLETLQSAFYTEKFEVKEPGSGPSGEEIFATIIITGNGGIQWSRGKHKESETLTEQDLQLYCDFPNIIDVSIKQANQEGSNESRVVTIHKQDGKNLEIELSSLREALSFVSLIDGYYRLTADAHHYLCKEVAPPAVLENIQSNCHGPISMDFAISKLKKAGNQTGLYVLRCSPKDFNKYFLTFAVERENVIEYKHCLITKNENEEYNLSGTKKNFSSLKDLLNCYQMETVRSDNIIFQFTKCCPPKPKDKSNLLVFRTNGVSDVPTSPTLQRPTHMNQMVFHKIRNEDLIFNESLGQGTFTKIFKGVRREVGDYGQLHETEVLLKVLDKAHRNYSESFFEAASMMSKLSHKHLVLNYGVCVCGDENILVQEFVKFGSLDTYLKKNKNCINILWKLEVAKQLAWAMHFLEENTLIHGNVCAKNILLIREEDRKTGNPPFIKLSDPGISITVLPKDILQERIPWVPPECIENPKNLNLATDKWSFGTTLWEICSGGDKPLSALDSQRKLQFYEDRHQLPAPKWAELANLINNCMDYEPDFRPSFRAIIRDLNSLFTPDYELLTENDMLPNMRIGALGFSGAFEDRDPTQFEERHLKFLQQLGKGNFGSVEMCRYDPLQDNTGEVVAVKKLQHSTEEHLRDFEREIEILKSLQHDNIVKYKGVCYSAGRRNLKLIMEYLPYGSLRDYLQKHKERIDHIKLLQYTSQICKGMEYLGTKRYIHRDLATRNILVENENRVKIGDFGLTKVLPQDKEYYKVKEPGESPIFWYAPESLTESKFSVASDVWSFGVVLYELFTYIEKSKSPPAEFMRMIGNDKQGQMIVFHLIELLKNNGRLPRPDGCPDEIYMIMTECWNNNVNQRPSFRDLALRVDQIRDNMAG

| Ki (Rho Kinase) | Ki (JAK2) | Structure (SMILES) |
| --- | --- | --- |
| 0.5 to 6 nM | 250 to 600 nM | O=C(OCc1ccccn1)c1ccc([C@@H]2C[C@H]2C(=O)Nc2ccc3cnccc3c2)cc1 (racemic) [Example E99, trans-pyridin-2-ylmethyl 4-(2-(isoquinolin-6-ylcarbamoyl)cyclopropyl) benzoate] |
| 20 to 50 nM | 270 nM | O=Cc1ccc([C@@H]2C[C@H]2C(=O)Nc2ccc3cnccc3c2)cc1 (racemic) [Example E159, trans-2-(4-formylphenyl)-N-(isoquinolin-6-yl)cyclopropane-1-carboxamide] |
| 1 to 10 nM | 200 nM | O=C(NCc1cccnc1)c1ccc([C@@H]2C[C@H]2C(=O)Nc2ccc3cnccc3c2)cc1 (relative stereo) [Example E8, trans-4-(2-(isoquinolin-6-ylcarbamoyl)cyclopropyl)-N-(pyridin-3-ylmethyl)benzamide] |
| 20 to 130 nM | 1600 to 5000 nM | O=C(OCc1ccccc1)c1ccc([C@@H]2C[C@H]2C(=O)Nc2ccc3cnccc3c2)cc1 (relative stereo) [Example E96, trans-benzyl 4-(2-(isoquinolin-6-ylcarbamoyl)cyclopropyl)benzoate] |
| 30 to 800 nM | – | O=C(NCc1cccc(F)c1)OCc1ccc([C@@H]2C[C@H]2C(=O)Nc2ccc3cnccc3c2)cc1 (relative stereo) [Example E142, trans-4-(2-(isoquinolin-6-ylcarbamoyl)cyclopropyl)benzyl (3-fluorobenzyl)carbamate] |
| 250 to 800 nM | – | O=C(Nc1ccc2cnccc2c1)[C@@H]1C[C@H]1c1ccc(CNCc2cccnc2)cc1 (relative stereo) [Example E160, trans-N-(isoquinolin-6-yl)-2-(4-(((pyridin-3-ylmethyl)amino)methyl)phenyl)cyclopropane-1-carboxamide] |
| 650 to 1250 nM | – | O=C(OCc1ccccc1)c1cccc([C@@H]2C[C@H]2C(=O)Nc2ccc3cnccc3c2)c1 (relative stereo) [Example E170, trans-benzyl 3-(2-(isoquinolin-6-ylcarbamoyl)cyclopropyl)benzoate] |
| 125 to 185 nM | 3000 nM | CC(C)(C)OC(=O)c1ccc([C@@H]2C[C@H]2C(=O)Nc2ccc3cnccc3c2)c(F)c1 (relative stereo) [Example E191, trans-tert-butyl 3-fluoro-4-(2-(isoquinolin-6-ylcarbamoyl)cyclopropyl)benzoate] |
| 6 to 8 nM | 110 nM | COc1ccc(CNC(=O)c2ccc([C@@H]3C[C@H]3C(=O)Nc3ccc4cnccc4c3)c(F)c2)cc1 (relative stereo) [Example E193, trans-3-fluoro-4-(2-(isoquinolin-6-ylcarbamoyl)cyclopropyl)-N-(4-methoxybenzyl)benzamide] |
| 60 to 300 nM | – | O=C(Nc1ccc2cnccc2c1)[C@@H]1C[C@H]1c1ccc(OCc2ccccc2)cc1 (relative stereo) [Example E210, trans-2-(4-(benzyloxy)phenyl)-N-(isoquinolin-6-yl)cyclopropane-1-carboxamide] |
| 1 to 7 nM | – | O=C(NCc1ccncc1)c1ccc(C2CC2C(=O)Nc2ccc3cnccc3c2)cc1 (stereo not drawn) [Example E10] |
| 3 to 43 nM | – | O=C(NCc1ccc(Cl)cc1)c1ccc(C2CC2C(=O)Nc2ccc3cnccc3c2)cc1 (stereo not drawn) [Example E14] |
| 1 to 5 nM | – | COc1ccc(CNC(=O)c2ccc(C3CC3C(=O)Nc3ccc4cnccc4c3)cc2)cc1 (stereo not drawn) [Example E15] |
| 2 to 4 nM | – | O=C(NCc1cccs1)c1ccc(C2CC2C(=O)Nc2ccc3cnccc3c2)cc1 (stereo not drawn) [Example E17] |
| 75 to 200 nM | – | Cc1nccc2cc(NC(=O)C3CC3c3ccc(C(=O)NCc4cccnc4)cc3)ccc12 (stereo not drawn) [Example E36] |
| 0.15 to 0.3 nM | – | O=C(NCc1ccncc1)c1cccc(C2CC2C(=O)Nc2ccc3cnccc3c2)c1 (stereo not drawn) [Example E174] |
| 70 to 100 nM | – | O=C(NCc1ccc(Cl)cc1)c1ccc(C2CC2C(=O)Nc2ccc3cnccc3c2)c(F)c1 (stereo not drawn) [Example E195] |
| 8000 to 15000 nM | – | C[C@@H]1OC(c2ccc(C3CC(=O)N(c4ccc5cnccc5c4)C3)cc2)O[C@H]1C (stereo partly drawn) [Example E223, 4-(4-((4S,5S)-4,5-dimethyl-1,3-dioxolan-2-yl)phenyl)-1-(isoquinolin-6-yl)pyrrolidin-2-one] |
| 2600 to 6750 nM | – | O=Cc1ccc(C2CC(=O)N(c3ccc4cnccc4c3)C2)cc1 (stereo not drawn) [Example E224, 4-(1-(isoquinolin-6-yl)-5-oxopyrrolidin-3-yl)benzaldehyde] |
| 1350 to 2200 nM | – | O=C1CC(c2ccc(CNCc3cccnc3)cc2)CN1c1ccc2cnccc2c1 (stereo not drawn) [Example E225, 1-(isoquinolin-6-yl)-4-(4-(((pyridin-3-ylmethyl)amino)methyl)phenyl)pyrrolidin-2-one] |
| 1900 to 9300 nM | – | O=C1CC(c2ccc(CNCc3ccccn3)cc2)CN1c1ccc2cnccc2c1 (stereo not drawn) [Example E226] |
| 14000 to 25000 nM | – | CC(C)(C)OC(=O)c1ccc(C2CC(=O)N(c3ccc4cnccc4c3)C2)cc1 (stereo not drawn) [Example E230, tert-butyl 4-(1-(isoquinolin-6-yl)-5-oxopyrrolidin-3-yl)benzoate] |
| 34000 to 68000 nM | – | O=C(O)c1ccc(C2CC(=O)N(c3ccc4cnccc4c3)C2)cc1 (stereo not drawn) [Example E231, 4-(1-(isoquinolin-6-yl)-5-oxopyrrolidin-3-yl)benzoic acid] |
| 6500 to 16000 nM | – | O=C(NCc1cccnc1)c1ccc(C2CC(=O)N(c3ccc4cnccc4c3)C2)cc1 (stereo not drawn) [Example E232, 4-(1-(isoquinolin-6-yl)-5-oxopyrrolidin-3-yl)-N-(pyridin-3-ylmethyl)benzamide] |

Second part, the compound before the results:

| Structure (SMILES) | Ki (Rho Kinase) | Ki (JAK2) |
| --- | --- | --- |
| O=C(Nc1ccc2cnccc2c1)C1CC1c1ccccc1 (stereo not drawn) | 5 to 13 nM | – |
| O=C(Nc1ccc2cnccc2c1)C1CC1c1ccc(COCc2ccccc2)cc1 (stereo not drawn) | 350 to 600 nM | – |
| O=C1CC(c2ccccc2)CN1c1ccc2cnccc2c1 (stereo not drawn) | 650 to 1350 nM | – |
| O=C(Nc1ccc2cnccc2c1)[C@@H]1C[C@H]1c1ccc(S(=O)(=O)N2CCNCC2)cc1 (racemic) [Example E248H, trans)-N-(isoquinolin-6-yl)-2-(4-(piperazin-1-ylsulfonyl)phenyl) cyclopropane-1-carboxamide dihydrochloride] | 30 to 50 nM | – |
| O=C(Nc1ccc2cnccc2c1)[C@@H]1C[C@H]1c1ccc(S(=O)(=O)Nc2ccccc2)cc1 (relative stereo) [Example E247A, trans-N-(isoquinolin-6-yl)-2-(4-(N-phenylsulfamoyl)phenyl) cyclopropane-1-carboxamide] | 70 to 350 nM | – |
| O=C(Nc1ccc2cnccc2c1)[C@@H]1C[C@H]1c1ccc(S(=O)(=O)NCC2CCNCC2)cc1 (relative stereo) [Example E248D, trans-N-(isoquinolin-6-yl)-2-(4-(N-(piperidin-4-ylmethyl)sulfamoyl)phenyl) cyclopropane-1-carboxamide dihydrochloride] | 5 to 9 nM | – |
| O=C(Nc1ccc2cncc(Cl)c2c1)[C@@H]1C[C@H]1c1ccc(S(=O)(=O)NC[C@H]2CCCNC2)cc1 [E250E*] | 9 to 11 nM | – |
| O=C(NCc1ccc(OC(F)(F)F)cc1)c1ccc(C2CC2C(=O)Nc2ccc3cnccc3c2)cc1 (stereo not drawn) [Example E15.1] | 65 to 110 nM | – |
| CC(C)(C)OC(=O)N1CCCC(CNC(=O)c2ccc(C3CC3C(=O)Nc3ccc4cnccc4c3)cc2)C1 (stereo not drawn) [Example E30.1] | 10 to 37 nM | – |
| O=C(NCC1CCCNC1)c1ccc(C2CC2C(=O)Nc2ccc3cnccc3c2)cc1 (stereo not drawn) [Example E30.2] | 1 to 8 nM | – |
| O=C(Nc1ccc(Oc2ccccc2)cc1)c1ccc(C2CC2C(=O)Nc2ccc3cnccc3c2)cc1 (stereo not drawn) [Example E39.1] | 75 to 110 nM | – |
| O=C(NCc1ccccc1)c1ccc([C@@H]2C[C@H]2C(=O)Nc2ccc3cnccc3c2F)cc1 [Example E115.1] | 0.1 to 1 nM | – |
| CC(C)(C)OC(=O)N1CCC(CNCc2ccc(C3CC3C(=O)Nc3ccc4cnccc4c3)cc2)CC1 (stereo not drawn) [Example E162.1] | 200 to 600 nM | – |
| O=C(Nc1ccc2cnccc2c1)C1CC1c1ccc(CNCC2CCNCC2)cc1 (stereo not drawn) [Example E162.2] | 125 to 300 nM | – |
| O=C(NCc1ccc2ccncc2c1)c1ccc(C2CC2C(=O)Nc2ccc3cnccc3c2)cc1F (stereo not drawn) [Example E195.1] | 4 to 7 nM | – |
| CC(C)(C)OC(=O)N1CCC(CNC(=O)c2ccc(C3CC3C(=O)Nc3ccc4cnccc4c3)cc2F)CC1 (stereo not drawn) [Example E195.2] | 0.4 to 1 nM | – |
| CC(C)(C)OC(=O)N1CCC(CNCc2ccc(C3CC(=O)N(c4ccc5cnccc5c4)C3)cc2)CC1 (stereo not drawn) [Example E227.1] | 1300 to 4000 nM | – |
| O=C1CC(c2ccc(CNCC3CCNCC3)cc2)CN1c1ccc2cnccc2c1 (stereo not drawn) [Example E227.2] | 300 to 600 nM | – |
| CC(C)(C)OC(=O)c1ccc(C2CC(=O)N(c3ccc4cnccc4c3)C2)cc1F (stereo not drawn) [Example E230.1] | 9300 nM | – |
| O=C(NCC1CCNCC1)c1ccc(C2CC(=O)N(c3ccc4cnccc4c3)C2)cc1 (stereo not drawn) [Example E234.2] | 1000 to 1250 nM | – |
| O=C(Nc1ccc2cnccc2c1)[C@@H]1C[C@H]1c1ccc(S(=O)(=O)NC[C@@H]2CCCNC2)cc1 [Example E248F, trans-N-(isoquinolin-6-yl)-2-(4-(N—(((R)-piperidin-3-yl)methyl)sulfamoyl)phenyl)-cyclopropane-1-carboxamide dihydrochloride] | 3 to 5 nM | – |
